Experiments:
CDK2/Cyclin E complex = biological target: T1, CDK2/Cyclin E complex (Homo sapiens, UniProt P24941); assay: CDK2/Cyclin E fluorescence-based microfluidic mobility shift assay (CDK2 Biochemical Caliper Assay); details: read-out: Biochemical CDK2/CyclinE Caliper IC50
T1 construct: purchased Eurofins 14-475
Procedure, shortened: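 Wild-type CDK2/Cyclin E was preincubated with compound and ATP for 30 min at RT before the 5-FAM-QSPKKG peptide was added. Final concentrations were 0.1 nM enzyme, 2000 uM ATP, 1.5 uM peptide and 1% DMSO. After 20 hr at RT and EDTA stop, substrate conversion was read by microfluidic mobility shift over an 11-point, 3-fold dilution series.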

[1] = biological target: target tagged with nanoLuciferase in 293-NB2 cells (Homo sapiens, UniProt P24941); assay: nanoBRET TE Intracellular Kinase Assay (Cell nanoBRET Assay); type: cell-based
Description: Compounds described herein were also tested in a nanoBRET TE Intracellular Kinase Assay. Test compounds were prepared in a DMSO stock solution. 45 uL of stock solution was transferred to a 384 well plate (Greiner, 781201), and a 3-fold 11-point dilution was performed. 293-NB2 cells expressing target tagged with nanoLuciferase were diluted in cell growth media (DMEM+10% FBS+1% Pen/Strep media) and a 40 uL cell solution of 7.5E4 cells/mL was seeded in a separate 384 well cell culture plate and incubated overnight at 37° C./5% CO2/100% humidity. […] 80 nL of each concentration of compound was transferred from the compound plate to a corresponding well in the cell culture plate by Echo550 liquid handler. The plates were incubated for 2 hrs at 37° C./5% CO2/100% humidity. […] Chemiluminescence was then read on an EnVision reader (PerkinElmer).

[2] = system: CDK2-independent (SKOV3, COV504, COV644) versus CDK2-dependent (COV318, OVCAR3, HCC1569) cell lines; assay: Cell proliferation selectivity assay (CyQUANT Direct Cell Proliferation Assay); type: cell-based; details: mean of IC50 ratios between each CDK2-independent versus CDK2-dependent cell line; 120 hours incubation
Description: Compounds described herein were also tested in cell proliferation selectivity assays. OVCAR3, HCC1569, and SKOV3 cell lines were obtained from ATCC and cultured as recommended by supplier. COV318, COV504, and COV644 cell lines were obtained from Sigma-Aldrich and were cultured as recommended by supplier. The genetic background and dependency of each cell line was determined using publicly available databases: cBioPortal and DepMap. […] All six cell lines are CDK1-dependent given that CDK1 is an essential gene. Proliferation assay was carried out by seeding cells into 384-well plates at predetermined density (ranging from 150 to 1500 cells per well) in corresponding culture media, followed by brief centrifugation at 1000×g, and culturing cells for 24 hours at 37° C., 5% CO2. The following day, compounds were serially diluted (1l-point, 3-fold dilution scheme with 20 μM as top concentration) and dispensed directly onto cells using Echo 555 acoustic liquid handler (Labcyte). The cells were incubated with the compounds at 37° C., 5% CO2 for 120 hours. Relative number of viable cells in each well was determined using CyQUANT Direct Cell Proliferation Assay Kit (Invitrogen) per manufacturers protocol. The plates were read on EnVision 2105 multimode plate reader (Perkin Elmer) using FITC filter set. Dose response curve fitting and IC50 calculation was done using Genedata Screener software. Proliferation selectivity (i.e. selectivity index) for individual compound was derived as a mean of its IC50 ratios between each CDK2-independent versus CDK2-dependent cell line.

Row | SMILES | IC50 (CDK2/Cyclin E complex) [nM] | IC50 [1] [nM] | Proliferation selectivity Index [2]
1 | Cc1cc(CC(=O)Nc2cc([C@@H]3CC[C@H](NC(=O)NC(C)C)C3)[nH]n2)on1 (single isomer, unassigned) [Example 102] | 1000 to 100000 | 1000 to 100000 | 
2 | Cc1cc(CC(=O)Nc2cc([C@H]3CC[C@@H](Oc4nnccc4C)C3)[nH]n2)on1 (single isomer, unassigned) [Example 119] | ≤ 100 | 250 to 1000 | 
3 | Cc1cc(CC(=O)Nc2cc([C@H]3CC[C@@H](OC(=O)NCCC(C)(C)O)C3)[nH]n2)on1 [Example 23] | 100 to 250 | 1000 to 100000 | 
4 | Cc1cc(CC(=O)Nc2cc([C@H]3C[C@@H](OC(=O)NC(C)C)C3)[nH]n2)on1 [Example 110] | ≤ 100 | 1000 to 100000 | 
5 | Cc1cc(CC(=O)Nc2cc([C@H]3CC[C@H](C(=O)NC(C)C)CC3)[nH]n2)on1 [Example 56] | 1000 to 100000 | 1000 to 100000 | 
6 | Cc1cc(CC(=O)Nc2cc([C@H]3CC[C@@H](OC(=O)NC(C)C)CC3)[nH]n2)on1 [Example 116] | ≤ 100 | 250 to 1000 | 
7 | Cc1cc(CC(=O)Nc2cc([C@H]3CC[C@@H](N4CC(C)(C)NC4=O)C3)[nH]n2)on1 (single isomer, unassigned) [Example 117] | ≤ 100 | 1000 to 100000 | 
8 | Cc1cc(CC(=O)Nc2cc([C@H]3CC[C@@H](C(=O)NC(C)C)CC3)[nH]n2)on1 [Example 55] | 1000 to 100000 | 1000 to 100000 | 
9 | C=C(C)c1ccncc1O[C@H]1CC[C@@H](c2cc(NC(=O)Cc3cc(C)no3)n[nH]2)C1 (single isomer, unassigned) [Example 58] | ≤ 100 | ≤ 100 | 
10 | Cc1cc(C(=O)Nc2cc([C@H]3CC[C@@H](OC(=O)NC(C)C)C3)[nH]n2)on1 [Example 17] | ≤ 100 | 1000 to 100000 | 
11 | Cc1cc(CC(=O)Nc2cc([C@H]3CC[C@@H](N4CC(C)(C)NC4=O)C3)[nH]n2)on1 (single isomer, unassigned) [Example 91] | ≤ 100 | 1000 to 100000 | 
12 | C=C(C)c1ccncc1O[C@@H]1CC[C@H](c2cc(NC(=O)Cc3cc(C)no3)n[nH]2)C1 (single isomer, unassigned) [Example 57] | ≤ 100 | ≤ 100 | 
13 | COCc1cc(C(=O)Nc2cc([C@@H]3CC[C@H](OC(=O)N(C)C(C)C)C3)[nH]n2)n(C)n1 [Example 8] | ≤ 100 | 100 to 250 | 
14 | Cc1cc(CC(=O)Nc2cc([C@H]3CC[C@@H](NC(=O)NC(C)C)C3)[nH]n2)on1 (single isomer, unassigned) [Example 83] | 1000 to 100000 | 1000 to 100000 | 
15 | CC(C)NC(=O)O[C@@H]1CC[C@H](c2cc(NC(=O)c3c[n+](C(C)(C)C)nn3C)n[nH]2)C1 [Example 19] | 250 to 1000 | 1000 to 100000 | 
16 | COCc1cc2c(Nc3cc([C@H]4C[C@@H](OC(=O)N[C@@H](C)CC(F)(F)F)CO4)[nH]n3)nccn2n1 (single isomer, unassigned) [Example I-33] |  |  | 17.57
17 | CC(C)NC(=O)O[C@@H]1CC[C@H](c2cc(NC(=O)c3ccnc4ncsc34)n[nH]2)C1 [Example 13] | ≤ 100 | ≤ 100 | 

Now from value to compound, other results behind:

Row | IC50 (CDK2/Cyclin E complex) [nM] | IC50 [1] [nM] | SMILES | Proliferation selectivity Index [2]
18 | ≤ 100 | 100 to 250 | CC(C)NC(=O)O[C@@H]1CC[C@H](c2cc(NC(=O)Cc3ccccc3)n[nH]2)C1 [Example 12] | 
19 | 250 to 1000 | 1000 to 100000 | CC(C)NC(=O)O[C@@H]1CC[C@H](c2cc(NC(=O)Cc3cnc4ncnn4c3)n[nH]2)C1 [Example 107] | 
20 | 100 to 250 | 1000 to 100000 | CCC(=O)O[C@@H]1CC[C@H](c2cc(NC(=O)Cc3cc(C)no3)n[nH]2)C1 [Example 115] | 
21 | ≤ 100 | 100 to 250 | CC(C)NC(=O)O[C@H]1CC[C@@H](c2cc(NC(=O)c3ccnn3C)n[nH]2)C1 [Example 6] | 
22 | ≤ 100 | ≤ 100 | CC1(NC(=O)O[C@@H]2CC[C@H](c3cc(NC(=O)Cc4ccccc4)n[nH]3)C2)CC1 [Example 7] | 
23 | ≤ 100 | 100 to 250 | CC(C)NC(=O)O[C@@H]1CC[C@H](c2cc(NC(=O)Cc3ccccc3S(C)(=O)=O)n[nH]2)C1 [Example 14] | 
24 | 1000 to 100000 | 1000 to 100000 | Cc1cc(CC(=O)Nc2cc([C@@H]3CC[C@@H](CC(=O)NC4(C)CC4)C3)[nH]n2)on1 (single isomer, unassigned) [Example 31] | 
25 | 100 to 250 | 250 to 1000 | Cc1cc(CC(=O)Nc2cc([C@@H]3CCC[C@H](OC(=O)NC4(C)CC4)CC3)[nH]n2)on1 (single isomer, unassigned) [Example 24] | 
26 | ≤ 100 | 1000 to 100000 | CC(C)NC(=O)O[C@@H]1CC[C@H](c2cc(NC(=O)Cn3nnc4ccccc4c3=O)n[nH]2)C1 [Example 41] | 
27 | 1000 to 100000 | 1000 to 100000 | Cc1cc(CC(=O)Nc2cc([C@H]3CC[C@@H](CC(=O)NC4(C)CC4)C3)[nH]n2)on1 (single isomer, unassigned) [Example 28] | 
28 | 250 to 1000 | 1000 to 100000 | Cc1cc(CC(=O)Nc2cc([C@H]3CC[C@@H](OC(N)=O)C3)[nH]n2)on1 (racemic) [Example 4] | 
29 | ≤ 100 | ≤ 100 | CC1(NC(=O)O[C@H]2CC[C@@H](c3cc(NC(=O)Cc4ccccc4)n[nH]3)C2)CC1 [Example 9] | 
30 | ≤ 100 | 250 to 1000 | CC(C)NC(=O)O[C@@H]1CC[C@H](c2cc(NC(=O)Cc3ccnn3C)n[nH]2)C1 [Example 18] | 
31 | ≤ 100 | ≤ 100 | CC(C)NC(=O)O[C@@H]1CC[C@H](c2cc(NC(=O)c3ccnn3C)n[nH]2)C1 [Example 5] | 
32 | 100 to 250 | 1000 to 100000 | CNC(=O)O[C@@H]1CC[C@H](c2cc(NC(=O)Cc3cc(C)no3)n[nH]2)C1 [Example 42] | 
33 | 1000 to 100000 | 1000 to 100000 | Cc1cc(CC(=O)Nc2ncn([C@@H]3CC[C@H](OC(=O)NC4(C)CC4)C3)n2)on1 (single isomer, unassigned) [Example 40] | 

Source: patent publication US20240190855A1 (Relay Therapeutics, Inc., priority 2021, published 2024)
